Consider 12 molecules from ChEMBL document CHEMBL1201862, “PubChem BioAssay data set” (2004).

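Values below derive from 48-hour exposures of cells grown in 96-well plates, with endpoints linearly interpolated between the two concentrations bracketing the appropriate inhibition level. Here, GI50 denotes the concentration required for 50% inhibition of growth.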 The source made the active and inactive calls. Rule as the data show it: active = GI50 up to about 1.1 µM and inactive = higher.

Test systems include U-251; M14; SR; OVCAR-4; OVCAR-8; SF-295; A549; HCT-15; UACC-62; RPMI-8226; SN12C; A498; SF-268; K562; EKVX; IGROV-1; NCI-H460; TK-10; SK-MEL-2; HOP-62.
Holding throughout (experiment): growth of human tumour cells (NCI), 48 h

Consider `CCN(CC)c1ccc2c(c1)Oc1ccc(N(CC)CC)cc1C21Oc2ccccc2-c2c1c1ccccc1n2CC` (stereo unspecified), for which the GI50 in the assay with U-251 is 1.68 µM (inactive); with M14 it was 3.07 µM (inactive); with SR it was 4.48 µM (inactive); with OVCAR-4, 3.58 µM (inactive); with OVCAR-8, 6.18 µM (inactive); in the assay on SF-295, 2.7 µM (inactive). The GI50 with A549 is 3.18 µM (inactive); in the assay on HCT-15, 3.82 µM; with UACC-62, 1.85 µM (inactive); in the assay with RPMI-8226, 0.592 µM (active); in the assay on SN12C it was 3.68 µM (inactive); in the assay with A498 it was 8.34 µM (inactive). Also, the GI50 was 2.38 µM (inactive) in the assay with SF-268, 0.679 µM (active) in the assay on K562 and 6.47 µM (inactive) with EKVX.

Consider `ClC[Si]12OCCN(CCO1)CCO2`, for which the GI50 with IGROV-1, in the assay with U-251, in the assay with NCI-H460, in the assay on SR, with OVCAR-8 and in the assay on SF-295 was > 100 µM (inactive) each time. In addition, the GI50 in the assay on A549, in the assay with UACC-62, in the assay with TK-10, with SK-MEL-2, in the assay with RPMI-8226 and in the assay with SN12C was > 100 µM (inactive) in each case. The GI50 in the assay with A498, in the assay on SF-268 and in the assay on K562 was > 100 µM (inactive) throughout.

As for `CN(C)Cc1cc(/N=N/c2ccccc2Cl)cc(CN(C)C)c1O`, the GI50 with IGROV-1 was 58.1 µM (inactive); in the assay on U-251, 84.3 µM (inactive); with M14, 29.4 µM (inactive); in the assay with NCI-H460, 47.2 µM (inactive); with SR it was 45.2 µM (inactive); with OVCAR-4 it was 60.1 µM (inactive). The GI50 is 45.5 µM (inactive) in the assay with OVCAR-8; 44.7 µM (inactive) in the assay with SF-295; 77.4 µM (inactive) with A549; greater than 100 µM in the assay with HCT-15; 26.2 µM (inactive) in the assay on UACC-62; > 100 µM (inactive) with TK-10. Further, the GI50 in the assay with RPMI-8226 was > 100 µM (inactive); with SN12C, > 100 µM (inactive); with A498, 33.7 µM (inactive); in the assay on SF-268, 73.8 µM (inactive); in the assay on HOP-62 it was 6.67 µM (inactive); with K562, 37.5 µM (inactive). In addition, in the assay on EKVX, the GI50 is > 100 µM (inactive).

Take `COc1cc(OC)c(OC)cc1/C=C/c1cc[n+](C)c2ccccc12`: the GI50 with IGROV-1 was 40 µM (inactive); with U-251, 5.02 µM (inactive); in the assay on M14, 60.8 µM (inactive); in the assay on NCI-H460, 33.2 µM (inactive); in the assay on SR it was 17.8 µM (inactive); in the assay with OVCAR-4 it was 46.9 µM (inactive). For the same molecule, the GI50 in the assay on OVCAR-8 is 9.93 µM (inactive); with SF-295, 15.3 µM (inactive); in the assay with A549, 25.9 µM (inactive); with HCT-15 it was greater than 100 µM; in the assay on TK-10, > 100 µM (inactive); with RPMI-8226, 21.2 µM (inactive). The GI50 was > 100 µM (inactive) with A498; 51.2 µM (inactive) in the assay with SF-268; 4.89 µM (inactive) with HOP-62; 3.07 µM (inactive) with K562; 50.2 µM (inactive) with EKVX.

For the molecule `c1ncn(C23C4C5C6C4C2C6C53)n1` (stereo unspecified), the GI50 in the assay on IGROV-1, in the assay on U-251, in the assay on NCI-H460, in the assay with SR, in the assay on OVCAR-8 and in the assay on SF-295 was > 100 µM (inactive) each time. Moreover, the GI50 in the assay on A549 is > 100 µM (inactive); in the assay on HCT-15, greater than 100 µM; with TK-10, > 100 µM (inactive); in the assay on SK-MEL-2, > 100 µM (inactive); in the assay with RPMI-8226, > 100 µM (inactive); in the assay on SN12C, > 100 µM (inactive). Further, the GI50 with A498, in the assay with SF-268, in the assay with HOP-62, in the assay on K562 and in the assay with EKVX was > 100 µM (inactive) each time.

Turning to `CC(=O)Oc1c2oc3cc(O)c(O)cc3c2c(OC(C)=O)c2oc3cc(O)c(O)cc3c12` [POLYOZELLIN], the GI50 in the assay on IGROV-1 was 18.2 µM (inactive); in the assay with U-251, 1.56 µM (inactive); in the assay with M14, 23.4 µM (inactive); with NCI-H460, 18.6 µM (inactive); in the assay with SR, 4.4 µM (inactive); in the assay on OVCAR-4, 19.8 µM (inactive). For the same molecule, the GI50 in the assay on OVCAR-8 was 20.2 µM (inactive); with SF-295, 16.7 µM (inactive); in the assay on A549, 35 µM (inactive); in the assay on HCT-15, 25.2 µM; in the assay with UACC-62, 16.6 µM (inactive); with TK-10, 18.9 µM (inactive). The GI50 in the assay on SK-MEL-2 was 20.5 µM (inactive); in the assay with RPMI-8226, > 10 µM (inactive); in the assay with SN12C it was 20.9 µM (inactive); in the assay with SF-268, 20.7 µM (inactive); in the assay on HOP-62, 16.1 µM (inactive); with K562 it was 19.1 µM (inactive). Besides, the GI50 in the assay on EKVX was 20.6 µM (inactive).

Take `CCN(CC)/[N+]([O-])=N/OCC(C)O` (stereo unspecified): the GI50 with IGROV-1, in the assay on U-251, in the assay with M14, in the assay on NCI-H460, in the assay with SR and with OVCAR-8 was > 100 µM (inactive) throughout. For the same molecule, the GI50 is > 100 µM (inactive) with SF-295; > 100 µM (inactive) with A549; greater than 100 µM in the assay on HCT-15; > 100 µM (inactive) in the assay with UACC-62; > 100 µM (inactive) in the assay with TK-10; > 100 µM (inactive) in the assay on SK-MEL-2. The GI50 in the assay with SN12C, in the assay with A498, in the assay with SF-268, in the assay on HOP-62, with K562 and with EKVX was > 100 µM (inactive) in each case.

In the case of `CC(=O)OCCn1cnc2c(NCC=C(C)C)ncnc21`, the GI50 with IGROV-1, with M14, in the assay on NCI-H460, in the assay with SR, with OVCAR-4 and in the assay on OVCAR-8 was > 100 µM (inactive) each time. Besides, the GI50 in the assay on SF-295, in the assay with A549, in the assay on TK-10, in the assay on RPMI-8226, in the assay with SN12C and in the assay on A498 was > 100 µM (inactive) throughout. For the same molecule, the GI50 in the assay on SF-268, in the assay with HOP-62, in the assay with K562 and in the assay with EKVX was > 100 µM (inactive) in each case.

Regarding `O=C1N[C@H]2c3c(Cl)sc(Cl)c3/C(=N/O)[C@H]2O1`, the GI50 with IGROV-1 is 72.3 µM (inactive); with U-251, > 100 µM (inactive); with M14, > 100 µM (inactive); in the assay with NCI-H460 it was 76.4 µM (inactive); with SR, > 100 µM (inactive); with OVCAR-8, > 100 µM (inactive). In addition, the GI50 is > 100 µM (inactive) in the assay on A549; 67.9 µM with HCT-15; > 100 µM (inactive) with UACC-62; > 100 µM (inactive) in the assay with TK-10; > 100 µM (inactive) in the assay on SK-MEL-2; > 100 µM (inactive) in the assay on RPMI-8226. Also, the GI50 is > 100 µM (inactive) in the assay with SN12C; > 100 µM (inactive) in the assay on A498; > 100 µM (inactive) with SF-268; > 100 µM (inactive) in the assay with HOP-62; 75.3 µM (inactive) in the assay with K562; > 100 µM (inactive) in the assay on EKVX.

In the case of `CCN(CC)CC[n+]1ccc2c(C)c3[nH]c4ccccc4c3c(C)c2c1`, the GI50 is 0.163 µM (active) with U-251; 0.923 µM (active) in the assay with M14; 0.251 µM (active) with NCI-H460; 0.608 µM (active) in the assay with SR; 0.789 µM (active) in the assay with SF-295; 22 µM with HCT-15. Besides, the GI50 in the assay with TK-10 was 4.41 µM (inactive); with SK-MEL-2, 0.428 µM (active); with RPMI-8226, 0.367 µM (active); with SN12C, 0.285 µM (active); in the assay with A498, 3.04 µM (inactive); in the assay on SF-268 it was 0.164 µM (active). For the same molecule, the values for the GI50 in the assay with HOP-62, with K562 and with EKVX were 1.22 µM (inactive), 0.214 µM (active) and 1.02 µM (active), respectively.

Take `O=C(Nc1ccccc1)c1cc(S(=O)(=O)NC2=Nc3ccc(Cl)cc3C(c3ccccc3)N2)c(SSc2cc(Cl)c(C(=O)Nc3ccccc3)cc2S(=O)(=O)NC2=Nc3ccc(Cl)cc3C(c3ccccc3)N2)cc1Cl` (stereo unspecified): the GI50 in the assay on IGROV-1 was > 100 µM (inactive); with U-251, > 100 µM (inactive); in the assay with M14, > 57.4 µM (inactive); in the assay with NCI-H460, > 100 µM (inactive); in the assay on SR, 13.6 µM (inactive); in the assay on OVCAR-4, > 100 µM (inactive). Besides, the GI50 is > 100 µM (inactive) in the assay on OVCAR-8; > 100 µM (inactive) in the assay with SF-295; > 100 µM (inactive) with A549; greater than 100 µM in the assay on HCT-15; > 89.9 µM (inactive) in the assay with UACC-62; > 100 µM (inactive) in the assay on TK-10. For the same molecule, the GI50 with SK-MEL-2 is > 100 µM (inactive); with RPMI-8226, 55.3 µM (inactive); in the assay with SN12C, > 100 µM (inactive); with SF-268, > 100 µM (inactive); in the assay with HOP-62, > 80.5 µM (inactive); with K562, 38 µM (inactive). The GI50 in the assay on EKVX is > 100 µM (inactive).

For `COC1OC(CO)C(O)C1N` (stereo unspecified), the GI50 in the assay with IGROV-1, in the assay on U-251, in the assay on M14, in the assay on NCI-H460, with SR and with OVCAR-4 was > 100 µM (inactive) each time. The GI50 in the assay with OVCAR-8 was > 100 µM (inactive); in the assay on SF-295, > 100 µM (inactive); in the assay with A549, > 100 µM (inactive); in the assay on HCT-15, greater than 100 µM; in the assay on UACC-62, > 100 µM (inactive); in the assay on TK-10, > 100 µM (inactive). Moreover, the GI50 in the assay with SN12C, in the assay on A498, with SF-268, in the assay on HOP-62, in the assay on K562 and with EKVX was > 100 µM (inactive) throughout.
